Reference: patent US11331330B2, “Phytochemical-antibiotic combination for the treatment of a bacterial infection” (University of Saskatchewan, priority 2018, dated 2022)
Values after ≈ are worked out from the molar mass of the structure shown. “Also recorded” adds a separate entry of the source.

Columns and labels:
arginase = arginase inhibitor; cited from earlier work
[1] = tested on: Pasteurella multocida ATCC 43137; assay: MIC by standard broth micro dilution assay (CLSI); assay type: cell-based; settings: ATCC43137, P. multocida, BHIB, 37° C., 18-24 h
Procedure: (§1) The bacterial strains of Mannheimia haemolytica ATCC 29702 and Pasteurella multocida ATCC 43137 were purchased from American Type Culture Collection (ATCC) distributor CEDARLANE Corporation, Burlington, Ontario, Canada and revived according to the manufacturer's instruction. Bacteria were grown in Brain Heart Infusion broth (BHIB).
(§2) MIC of tulathromycin and gallic acid against Mannheimia haemolytica and Pasteurella multocida was determined by using standard broth micro dilution assay as outlined by CLSI (Richard S, Lynn S-M, Avery C G. Antimicrobial susceptibility testing protocols. New York: CRC Press; 2007). Strains were sub-cultured in Brain Heart Infusion Broth (BHIB), incubated at 37° C. overnight and bacterial suspension OD was adjusted with the media to 0.5 McFarland turbidity as per CLSI protocol (Approx. cell density 1.5×10^8 CFU/mL) using normal saline as control. 100 μl of broth was added to each well (including positive control wells) and then serial dilution of tulathromycin (5 to 0.04 μg/ml) and gallic acid (500 to 3.9 μg/ml) was executed. 5 μl of bacterial sample was added to all the wells except the positive control well. […] Plates were then incubated at 37° C. for 18-24 h and were subsequently read automatically by using 96 well plate reader (BIORAD iMark Microplate Reader) at 655 nm. The readings were double checked manually using the Sensititre Vizion System.

[2] = tested on: Mannheimia haemolytica ATCC 29702; assay: MIC by standard broth micro dilution assay (CLSI); assay type: cell-based; settings: ATCC29702, M. haemolytica, BHIB, 37° C., 18-24 h
Procedure: as §1, §2

M. haemolytica = assay: Resistance generation study; assay type: cell-based, Mannheimia haemolytica; settings: sub-MIC (1/2 MIC) doses, stress generation conditions
Procedure: (§3) For the resistance generation studies, M. haemolytica and P. multocida were cultured in the presence of sub-MIC doses (1/2 MIC) of tulathromycin and gallic acid individually until they reach 1 unit OD at 565 nm. The bacterial cells were then given antibiotic stress relaxation by culturing them in BHIB till 1 OD unit of turbidity is reached at 565 nm. This first pass cycle of culturing in sub-MIC dose of tulathromycin, and relaxing in BHIB is considered as 1st generation (1G-TulathromycinA). The cycle as above was repeated to obtain 2nd and 3rd generation of bacterial cultures. Subsequently, MIC assays were performed with all the three generations of the two bacterial strains to evaluate the level of sensitivity towards tulathromycin. The experiments were repeated with gallic acid.
(§4) Bacteria were treated individually with sub-MIC dose (½ MIC) of tulathromycin and gallic acid with alternate relaxation of stress in BHIB for […] each. Each 24 hrs treatment was considered as 1 generation (24 hrs drug+24 hrs of BHIB).

[3] = tested on: co-culture of M. haemolytica and P. multocida; assay: MIC against the co-culture; assay type: cell-based
Procedure: MIC of tulathromycin, gallic acid and its combinations were determined against the co-culture of M. haemolytica and P. multocida. The overnight grown cultures of M. haemolytica and P. multocida were adjusted to 0.5 McFarland standard turbidity in BHIB, and then equal proportion of each of the cultures was added in the 96 well plates. After the addition of serially diluted drugs, the plates were incubated at 37° C. overnight and read as of above.

P. multocida ATCC 43137 = assay: Synergy studies, checker board serial dilution; assay type: cell-based, Pasteurella multocida; settings: gallic acid alone, 3.9 μg/ml dose
Procedure: (§5) For the drug interaction studies, gallic acid was mixed with tulathromycin to test the drug interactions between tulathromycin and gallic acid. This was done by a checker board serial dilution technique performed in 96-well polypropylene plates (as explained elsewhere, for example, in [11]). The fractional inhibitory concentration (FIC) index of the combinations of antimicrobial compounds was calculated according to the equation: FIC index=FICA+FICB=A/MICA+B/MICB where A (gallic acid) and B (Tulathromycin) are the MICs of compound A and compound B in combination. MICA and MICB are the MICs of compound A and compound B, separately, FICA and FICB are the FICs of compound A and compound B (Hal M J J Antimicrob Chemother. 1983 May; 11(5):427-33). Results (a) Antimicrobial Activity of Tulathromycin and Gallic Acid
(§6) • FICA, FICB—Fractional inhibitory concentration of drug A & B respectively. • MICA, MICB—Minimum inhibitory concentration of drug A & B respectively. • [A], [B]—Concentration of drug A & B respectively. • The FIC indexes were interpreted as follows: synergy is defined as ≤0.5; additivity is defined as 0.5<4.0; and antagonism is defined as >4. (d) Resistance Generation Study Results

P. multocida = assay: Resistance generation study; assay type: cell-based, Pasteurella multocida; settings: sub-MIC (1/2 MIC) doses, stress generation conditions
Procedure: as §3, §4

[4] = tested on: M. haemolytica ATCC 29702; assay: Synergy studies, checker board serial dilution; assay type: cell-based, Mannheimia haemolytica; settings: gallic acid alone, 3.9 μg/ml dose
Procedure: as §5, §6

O=C(O)c1cc(O)c(O)c(O)c1 [gallic acid]
IC50 (arginase): 2200 nM | MIC [1]: 500 µg/mL (≈ 2940 µM) | MIC [2]: 250 µg/mL (≈ 1470 µM) | effect of sub-MIC pre-treatment on sensitivity of the bacteria (M. haemolytica): does not affect the sensitivity; also recorded: no effect on the sensitivity | MIC [3]: 500 µg/mL | maximum reduction in bacterial growth (P. multocida ATCC 43137): 5.33% | effect of sub-MIC pre-treatment on sensitivity of the bacteria (P. multocida): did not alter the sensitivity; also recorded: no effect on the sensitivity | maximum reduction in bacterial growth [4]: 7.70%
